From patent US11767341B2, “Lincosamide antibiotics and uses thereof” (President and Fellows of Harvard College, priority 2017, dated 2023) come the findings set out here.

The structures appear in SMILES notation. In brackets after ≈: the same amount, converted by molar mass. Like-named read-outs stand apart in the source and are kept apart here.

Common to all, as to experiment: MIC determination
Holding throughout (format): cell-based

In experiment [1] the test system is S. aureus UNT-120, MP-619, NRS22 (USA 600, GISA). The settings on record: Staphylococcus aureus.
Experiment [2] relates to S. aureus UNT-146, MP-620, TP 506 (ermA). The settings on record: Staphylococcus aureus.
Experiment [3] relates to E. faecalis ATCC 29212. As to conditions: Enterococcus faecalis.
Experiment [4] has as its system S. aureus MP-513 clinical cErm. The settings on record: Staphylococcus aureus.
In experiment [5] the test system is P. aeruginosa ATCC 27853. The settings on record: Pseudomonas aeruginosa, ATCC27853.
Experiment [6] has as its system K. pneumoniae ATCC 10031. The settings on record: Klebsiella pneumoniae, ATCC10031.
Experiment [7] deals with S. pyogenes ATCC 19615. As to conditions: Streptococcus pyogenes, ATCC19615.
For experiment [8], the system named is S. aureus ATCC 29213. As to conditions: Staphylococcus aureus.
Experiment [9] relates to S. aureus UNT96, NRS710, MP-618 (USA 100, Erythro >8). The settings on record: Staphylococcus aureus.
For experiment [10], the system named is E. faecalis UNT-047 VRE. The settings on record: Enterococcus faecalis, VRE.
The subject of experiment [11] is E. coli ATCC 25922. As to conditions: Escherichia coli.
Experiment [12] has as its system S. pneumoniae UNT-038, MP-626, TP 160 (mefA). As to conditions: Streptococcus pneumoniae.
Experiment [13] relates to S. aureus MP-549 msr(a) USA 300. As to conditions: Staphylococcus aureus, USA300, S. aureus MP-549 msr(a) USA 300.
The test system of experiment [14] is S. pneumoniae ATCC 49619. The settings on record: Streptococcus pneumoniae, ATCC49619; S. pneumoniae ATCC 49619; read-out: MIC.
Experiment [15] concerns S. pneumoniae UNT-039, MP-627, TP1517 (mefA). The settings on record: Streptococcus pneumoniae.
Experiment [16] relates to S. pyogenes UNT-014, MP-625 MacRes. As to conditions: Streptococcus pyogenes.
Experiment [17] has as its system E. coli MP-9 ΔTolC. As to conditions: Escherichia coli.
In experiment [18] the test system is S. aureus BAA 977 iErmA. As to conditions: Staphylococcus aureus, BAA977.
Experiment [19] deals with E. coli MP-74 LptD mutant. As to conditions: Escherichia coli.
Experiment [20] has as its system S. pneumoniae MMX 3028 cErmB. The settings on record: Streptococcus pneumoniae, MMX3028CERMB.
Experiment [21] relates to S. pyogenes MMX 946 Macrolide-Resistant. As to conditions: Streptococcus pyogenes, read-out: MIC.
Experiment [22] has as its system H. influenzae ATCC 49247. As to conditions: Haemophilus influenzae, ATCC49247.
The subject of experiment [23] is E. coli MMX 0121 ΔTolC. The settings on record: Escherichia coli.
Experiment [24] deals with C. difficile BAA 1805. The settings on record: Clostridioides difficile, BAA1805; C. difficile BAA 1805; read-out: MIC.
Experiment [25] concerns S. pneumoniae MMX 3031 cMefA. The settings on record: Streptococcus pneumoniae, MMX3031CMEFA.
Experiment [26] has as its system P. aeruginosa MMX Mex parent strain. As to conditions: Pseudomonas aeruginosa.
In experiment [27] the test system is P. aeruginosa MMX 3476 Δmex. As to conditions: Pseudomonas aeruginosa.
In experiment [28] the test system is E. faecalis MMX 847 Macrolide-Resistant. The settings on record: Enterococcus faecalis.
For experiment [29], the system named is B. fragilis ATCC 25285. As to conditions: Bacteroides fragilis, ATCC25285.
Experiment [30] concerns S. aureus MMX 3035 cErmA. The settings on record: Staphylococcus aureus, MMX3035CERMA.
In experiment [31] the test system is S. aureus Micromyx USA 300. The settings on record: Staphylococcus aureus, USA300; S. aureus Micromyx USA 300; read-out: MIC.
Experiment [32] concerns E. coli MMX TolC parent strain. As to conditions: Escherichia coli.
Experiment [33] has as its system E. coli GUEST131 (NDM-1). As to conditions: Escherichia coli.
Experiment [34] relates to S. pneumoniae TP 1579 (ermB + tet(M, O)). The settings on record: Streptococcus pneumoniae.
The mark [35] stands for this setting: S. pyogenes ATCC 19615, read-out: MIC.
[36] abbreviates: S. pyogenes UNT-014, MP-625 MacRes, read-out: MIC.
The mark [37] stands for this setting: K. pneumoniae ATCC 10031, read-out: MIC.
Where [38] appears, read: ATCC29213, S. aureus ATCC 29213, read-out: MIC.

Consider `CSC1O[C@H]([C@H](NC(=O)[C@H]2NC[C@@H]3C[C@H]4OC(C)(C)O[C@H]4CO[C@H]32)[C@H](C)Cl)C(O)[C@@H](O)[C@H]1O` (stereo partly drawn) [FSA-501099], for which the MIC in experiment [1], in [2], in experiment [3] (ATCC29212), in experiment [4], in experiment [5] and in [6] was above 64 µg/mL throughout. For the same compound, the MIC in experiment [7] (setting [35]) was 16 µg/mL (≈ 31.3 µM); in [8] (ATCC29213), above 64 µg/mL; in experiment [9] it was above 64 µg/mL; in experiment [10], above 64 µg/mL; in [11] (ATCC25922) it was above 64 µg/mL; in experiment [12] it was 16 µg/mL (≈ 31.3 µM). For the same compound, the MIC in [13] is above 64 µg/mL; in experiment [14], 8 µg/mL (≈ 15.7 µM); in [15], 2 µg/mL (≈ 3.91 µM); in experiment [16] (setting [36]) it was 29 µg/mL (≈ 56.7 µM); in [17], above 64 µg/mL; in experiment [18], above 64 µg/mL.

`CSC1O[C@H]([C@H](NC(=O)[C@H]2NC[C@@H]3C[C@@H](c4ccccc4F)CCO[C@H]32)[C@H](C)Cl)C(O)[C@@H](O)[C@H]1O` (stereo partly drawn) [FSA-511100]: the MIC is above 256 µg/mL in experiment [3] (ATCC29212, read-out: MIC); above 256 µg/mL in experiment [4] (S. aureus MP-513 clinical cErm, read-out: MIC); above 64 µg/mL in experiment [6] (setting [37]); 0.25 µg/mL (≈ 0.469 µM) in experiment [7] (setting [35]); 0.25 µg/mL (≈ 0.469 µM) in experiment [8] (setting [38]); above 64 µg/mL in [11] (ATCC25922, E. coli ATCC 25922, read-out: MIC). Further, the MIC in experiment [13] was 0.25 µg/mL (≈ 0.469 µM); in experiment [19] it was 16 µg/mL (≈ 30 µM); in experiment [20] (S. pneumoniae MMX 3028 cErmB, read-out: MIC), above 256 µg/mL; in experiment [14], 0.125 µg/mL (≈ 0.234 µM); in [21] (S. pyogenes MMX 946 MacRes) it was above 256 µg/mL; in experiment [15], 1 µg/mL (≈ 1.88 µM). Further, the MIC was 64 µg/mL (≈ 120 µM) in [22] (H. influenzae ATCC 49247, read-out: MIC); 32 µg/mL (≈ 60 µM) in experiment [17]; 4 µg/mL (≈ 7.5 µM) in [18].

Take `CSC1O[C@H]([C@H](NC(=O)[C@H]2NC[C@@H]3C[C@@H](O)[C@@H](O)CO[C@H]32)[C@H](C)Cl)C(O)[C@@H](O)[C@H]1O` (stereo partly drawn) [FSA-501076]: the MIC in experiment [1], in experiment [2], in [3] (ATCC29212), in experiment [4], in experiment [5] and in [6] was above 64 µg/mL each time. The MIC in experiment [7] is above 64 µg/mL; in [8] (ATCC29213), above 64 µg/mL; in experiment [9], above 64 µg/mL; in experiment [10], above 64 µg/mL; in experiment [11] (ATCC25922), above 64 µg/mL; in experiment [12], 64 µg/mL (≈ 136 µM). In addition, the MIC in experiment [13] is above 64 µg/mL; in [14], 64 µg/mL (≈ 136 µM); in [15], 32 µg/mL (≈ 67.9 µM); in experiment [16] it was above 64 µg/mL; in experiment [17] it was above 64 µg/mL; in experiment [18] it was above 64 µg/mL.

For the compound `CSC1O[C@H]([C@H](NC(=O)[C@H]2NC[C@@H]3CC=CCO[C@H]32)[C@H](C)Sc2ccc(-c3cncnc3)cc2)C(O)[C@@H](O)[C@H]1O` (stereo partly drawn) [FSA-27049], the MIC in experiment [3] (ATCC29212) was 64 µg/mL (≈ 109 µM); in experiment [4], above 64 µg/mL; in experiment [23], 8 µg/mL (≈ 13.6 µM); in experiment [24] it was 1 µg/mL (≈ 1.7 µM); in experiment [25], at most 0.06 µg/mL; in [5] it was above 64 µg/mL. For the same compound, the MIC in [26] was above 64 µg/mL; in [27], above 64 µg/mL; in [7] (setting [35]), at most 0.06 µg/mL; in [8] (setting [38]), 1 µg/mL (≈ 1.7 µM); in experiment [11] (ATCC25922) it was above 64 µg/mL; in experiment [28], above 64 µg/mL. Also, the MIC in [13] is 0.25 µg/mL (≈ 0.425 µM); in experiment [19], 32 µg/mL (≈ 54.4 µM); in [20], 32 µg/mL (≈ 54.4 µM); in experiment [29], above 64 µg/mL; in [14] it was at most 0.06 µg/mL; in experiment [30] it was above 64 µg/mL. Further, the MIC was 2 µg/mL (≈ 3.4 µM) in experiment [21] (S. pyogenes MMX 946 Macrolide-Resistant (MacRes)); 1 µg/mL (≈ 1.7 µM) in experiment [31]; 32 µg/mL (≈ 54.4 µM) in [22]; above 64 µg/mL in experiment [32]; 64 µg/mL (≈ 109 µM) in experiment [17]; 2 µg/mL (≈ 3.4 µM) in [18].

With `CSC1O[C@H]([C@H](NC(=O)[C@H]2NC[C@@H]3CN(Cc4ccccc4)CCO[C@H]32)[C@H](C)Cl)C(O)[C@@H](O)[C@H]1O` (stereo partly drawn) [FSA-502002], the MIC in [1] was above 64 µg/mL; in [2] it was above 64 µg/mL; in experiment [3] (ATCC29212, read-out: MIC), 8 µg/mL (≈ 15.1 µM); in experiment [4], above 64 µg/mL; in [5], above 64 µg/mL; in [6] (setting [37]) it was 64 µg/mL (≈ 121 µM). Also, the MIC is 0.125 µg/mL (≈ 0.236 µM) in experiment [7] (setting [35]); 2 µg/mL (≈ 3.77 µM) in experiment [8] (setting [38]); above 64 µg/mL in experiment [9]; above 64 µg/mL in experiment [10]; above 64 µg/mL in experiment [11] (ATCC25922); 0.25 µg/mL (≈ 0.472 µM) in [12]. The MIC in [13] was 2 µg/mL (≈ 3.77 µM); in experiment [14], 0.25 µg/mL (≈ 0.472 µM); in experiment [15], 0.125 µg/mL (≈ 0.236 µM); in experiment [16] (setting [36]), 0.125 µg/mL (≈ 0.236 µM); in [17], above 64 µg/mL; in experiment [18] it was 2 µg/mL (≈ 3.77 µM).

Take `CCCN1CCO[C@@H]2[C@H](CN[C@@H]2C(=O)N[C@H]([C@H](C)Cl)[C@H]2OC(SC)[C@H](O)C(O)C2O)C1` (stereo partly drawn) [FSA-503003]: the MIC is above 64 µg/mL in [4]; above 64 µg/mL in experiment [5]; above 64 µg/mL in [6]; 4 µg/mL (≈ 8.3 µM) in [8] (setting [38]); above 64 µg/mL in experiment [11] (ATCC25922); 2 µg/mL (≈ 4.15 µM) in [13]. Moreover, the results for the MIC in experiment [17] and in experiment [18] were above 64 µg/mL and 4 µg/mL (≈ 8.3 µM), respectively.

Take `CCC[C@@H]1C[C@@H](C(=O)N[C@@H]([C@H]2O[C@H](SC)[C@H](O)[C@@H](O)[C@H]2O)[C@H](C)Cl)N(C)C1` [Clindamycin, clindamycin, reference compound]: the MIC is above 64 µg/mL in experiment [4]; 4 µg/mL (≈ 9.41 µM) in [23]; above 64 µg/mL in experiment [5]; above 64 µg/mL in [26]; above 64 µg/mL in experiment [27]; at most 0.0313 µg/mL in experiment [12]. For the same compound, the MIC was above 3 µg/mL in experiment [33]; above 64 µg/mL in experiment [28]; at most 0.0313 µg/mL in experiment [15]; at most 0.0313 µg/mL in experiment [16] (setting [36]); 0.25 µg/mL (≈ 0.588 µM) in experiment [31]; at most 0.0313 µg/mL in experiment [34]. Moreover, in [32], the MIC was above 64 µg/mL.
